The structures appear in SMILES notation. Converted amounts (≈) assume the structure as drawn.

The test system of data set [1] is normal colon Caco-2 cells. In words: Cell viability, CCK-8 assay, normal cells. Type of data set: cell-based. The settings on record: Caco-2, 30-150 μg/ml, 12-48 h. The method, then: (§1) Panel b of FIGS. 2A-2C: Cell viability was determined by CCK-8 assay as described in Materials and Methods. SW620 (FIG. 2A) and HCT116 (FIG. 2B) colon cancer cells as well as normal cells (Caco-2) (FIG. 2C) were treated with various doses (30-150 μg/ml) of thiacremonone for different times (12-48 h). Values are each the mean±S.D. of three experiments, each performed in triplicate.
(§2) SW620 and HCT116 colon cancer cells were plated at a density of 10^4 cells/well in 96-well plates per 100 μl medium. To determine the appropriate concentration that is not cytotoxic to the cells, the cytotoxic effect was evaluated in cells cultured for 12, 24, 36, and 48 h using the cell counting kit-8 assay kit according to the manufacturer's instructions (Dojindo, Gaithersburg, Md., USA). Briefly, 10 μl of the CCK-8 solution was added to cells cultured for the designated time. The plates were incubated for 1-4 h in the incubator. The resulting color was assayed at […] using a microplate absorbance reader (Sunrise, Tecan, Switzerland). Each assay was carried out in triplicate.
For orientation: Tetrazolium assays rely on reduction of a dye to a coloured formazan, in cell work by metabolically active cells.

For data set [2], the system named is HCT116 colon cancer cells. In words: Cell viability / growth, CCK-8 assay, HCT116. Type of data set: cell-based. The settings on record: Homo sapiens, HCT-116, HCT116, 48 h, read-out: IC50 of cell growth inhibition. The method, then: as §1, §2
For data set [3], the system named is NF-κB. In words: NF-κB luciferase reporter assay (pNF-κB-Luc), HCT116. The settings on record: HCT116, 30-150 μg/ml, 8 h. Type of data set: cell-based, human. The method, then: FIG. 1B: Colon cancer cells were transfected with pNF-κB-Luc plasmid (5×NF-κB) and then activated with TNF-α (150 U/ml) alone or TNF-α plus different concentrations (30-150 μg/ml) of thiacremonone at 37° C. in both SW620 (panel a and b) and HCT116 (panel c and d) colon cancer cells, and then the luciferase activity was determined. All values represent mean±S.D. of three independent experiments performed in triplicate. RLU is relative to luciferase activity in transfected unstimulated cells. *P<0.05 indicates statistically significant differences from the TNF-α-treated group.
SW620 and HCT116 human colon cells (2.5×10^5 cells/cm^2) were plated in 24-well plates and transiently transfected with pNF-κB-Luc plasmid (5×NF-κB; Stratagene, La Jolla, Calif., USA) using a mixture of plasmid and lipofectAMINE PLUS in OPTI-MEN according to manufacturer's specifications (Invitrogen, Carlsbad, Calif., USA). The transfected cells were treated with tumor necrosis factor-α (TNF-α) (10 ng/ml) or TPA (50 nM) and different concentrations (30-150 μg/ml) of thiacremonone for 8 h. Luciferase activity was measured by using the luciferase assay kit (Promega, Madison, Wis., USA) according to the manufacturer's instructions (WinGlow, Bad Wildbad, Germany).

Data set [4] concerns SW620 colon cancer cells. The experiment in a line: Cell viability / growth, CCK-8 assay, SW620. The settings on record: Homo sapiens, SW-620, read-out: IC50 of cell growth inhibition, heading: IC50 of cell growth inhibition, SW620, 48 h. Type of data set: cell-based. The method, then:
as §1, §2

The subject of data set [5] is HCT116 colon cancer cells. In words: Western blot of apoptosis regulatory proteins, HCT116. The settings on record: HCT116, 30-150 μg/ml, 24 h. Type of data set: cell-based, human. As to the method:
The cells were treated with different concentrations (30-150 μg/ml) of thiacremonone at 37° C. for 24 h. Equal amounts of total proteins (50 μg/lane) were subjected to 12% SDS-PAGE. Expressions of Bax, cleaved caspase-3, cleaved PARP, Bcl-2, cIAP1/2, XIAP, and β-actin were detected by western blotting using specific antibodies. β-Actin protein was used an internal control. Panel a: SW620 colon cancer cells. Panel b: HCT116 colon cancer cells. Each band is representative of three independent experiments.
Cultured cells were washed twice with 1×PBS, followed by the addition of 1 ml of PBS, and the cells were scraped into a cold Eppendorf tube. Cells were homogenized with lysis buffer [50 mM Tris pH 8.0, 150 mM NaCl, 0.02% sodium azide, 0.2% SDS, 1 mM PMFS, 10 μl/ml aprotinin, 1% igapel 630 (Sigma-Aldrich, St. Louis, Mo., USA), 10 mM NaF, 0.5 mM EDTA, 0.1 mM EGTA, and 0.5% sodium deoxycholate] and centrifuged at 23,000×g for 15 min. The protein concentration was measured by the Bradford method (Bio-Rad Protein Assay; Bio-Rad Laboratories Inc., Hercules, Calif., USA), and equal amount of proteins (50 μg) were separated on a SDS/12%-polyacrylamide gel and then transferred to a Hybond ECL nitrocellulose membrane (Amersham Pharmacia Biotech Inc., Piscataway, N.J., USA). Blots were blocked for 2 h at room temperature with 5% (w/v) non-fat dried milk in Tris-buffered saline [10 mM Tris (pH 8.0) and 150 mM NaCl] solution containing 0.05% tween-20. […] Immunoreactive proteins were detected with the ECL Western blotting detection system. The relative density of the protein bands was scanned by densitometry using MyImage (SLB) and quantified by Labworks 4.0 software (UVP Inc.).
In general terms: Immunoblotting shows a protein as a band on a membrane.

In data set [6] the test system is SW620 xenograft. The experiment in a line: SW620 colon xenograft in nude mice. Type of data set: in vivo. To be noted: for tumor volume, % of sham control group: day 31. From the text: To elucidate the anticancer effect of thiacremonone in vivo, the tumor growth on colon xenograft bearing nude mice following thiacremonone treatments were investigated. In SW620 xenograft studies, thiacremonone was administrated intraperitoneally twice per week for 4 weeks to mice with tumors ranging from 100 to 300 mm3 of tumor volume. The mice were weighted twice per week. The change of body weights between saline and thiacremonone-administrated mice (n=10) was not different during the experiment.
FIG. 5 represents the relative tumor growth delay measured after treatment of thiacremonone (240 and 360 mg/kg for four weeks, n=10) in comparison with the sham control group (saline).

A word on the IC50: it is the point on the concentration scale where inhibition reaches its midpoint. With `CC1=C(O)C(=O)C(C)(O)S1` (stereo not shown) [thiacremonone, 2,4-dihydroxy-2,5-dimethyl-thiophene-3-one], the cytotoxic effect entry in data set [1] is listed as “no cytotoxic effect”. For the same molecule, the values for the half-maximal inhibitory concentration (IC50) in data set [2] and in data set [4] were 130 µg/mL (≈ 812 µM) and 105 µg/mL (≈ 655 µM), respectively. In data set [3], the “TNF-α and TPA induced NF-κB luciferase activity” value is “inhibited TNF-α and TPA induced NF-κB luciferase activity dose-dependently”. Also, in data set [5], the “Expressions of apoptotic proteins Bax, cleaved caspases 3, cleaved PARP” value is “increased”. In addition, in data set [5], the “expressions of antiapoptotic protein Bcl-2, cIAP1/2, XIAP and cyclin D1” value is given as “decreased”. Besides, in data set [5], the “iNOS and COX-2 expression” value is on record as “inhibited the expressions dose-dependently”. Also, the “tumor volume, % of sham control group” value in data set [6] (240 mg/kg intraperitoneally twice per week for 4 weeks) is 92.5%; in data set [6] (360 mg/kg intraperitoneally twice per week for 4 weeks), 59.1%. The “change of body weights versus saline” value in data set [6] (intraperitoneally twice per week for 4 weeks, nude mice) was “not different”.

The values above are taken from patent US7759391B2, “Pharmaceutical composition comprising thiacremonone for treating colon cancer” (Chungbuk National University Industry Academic Cooperation …, priority 2007, dated 2010).
